Data from paper PMC9727064, “Performance assessment and economic analysis of a human Liver-Chip for predictive toxicology” (Communications Medicine, 2022).
Like-named read-outs stand apart in the source and are kept apart here.

Key:
[1] = system: clinical drug-induced liver injury; conditions: clinical DILI severity category 1 to 5; cited from earlier work
[2] = cited from earlier work
[3] = system: human Liver-Chip (primary human hepatocytes); experiment: Liver-Chip alanine transaminase (ALT) release in top channel effluent (ELISA); type: cell-based
Source text: (§1) Cycles 1 to 4 tested 6–8 concentrations in duplicate for each of 10–13 drugs. To determine which sampling strategy was optimal for cycles 1 to 4 (16 doses × 1 replicate, 8 × 2, 5 × 3, or 4 × 4), we generated three different “dose-response” synthetic datasets, each distorted by different noise levels (low, medium, or high). For each of these datasets, we performed curve-fitting analyses and calculated the Root Mean Square Error between the “true” and estimated IC50 parameter. […] Some drugs were also repeated across cycles (on different donors or at different concentrations) to ensure experimental robustness. However, to replicate a more typical study design likely to be carried out by scientists in the pharmaceutical industry, we created cycle 5 with 6 drugs, where each was tested in 4 concentrations in triplicate. For each cycle, chips were dosed with drug over 8 days (referred to as Day 0 through Day 7).
(§2) The drug dosing concentrations were determined from the unbound human Cmax of each drug. First, the expected fraction of drug unbound in media with 2% FBS was extrapolated from plasma binding data for each drug. Dosing concentrations were then back calculated such that the unbound fraction in media would reflect relevant multiples of unbound human Cmax (Supplementary Data 1).
(§3) On the first dosing day (Day 0), all chips were imaged using the ECHO microscope. Five hundred microliters of effluent was collected from all four reservoirs of the pod and placed in a labeled 96-well plate. After collection, all the remaining media was carefully aspirated before dosing with 3.8 mL of corresponding dosing solution. Dosing occurred on study days 0, 2, and 4 for chips flowing at 30 µL/h, and on days 0, 1, 2, 3, 4, 5, and 6 for chips flowing at 150 µL/h. Effluent collection occurred on days 1, 3, and 7.
(§4) Top channel outlet effluents were analyzed to quantify albumin and alanine transaminase (ALT) levels on days 1, 3, and 7 using sandwich ELISA kits (Abcam, Albumin ab179887, ALT ab234578) according to vendor-provided protocols. Frozen (−80 °C) effluent samples were thawed overnight at 4 °C prior to assay. The Hamilton Vantage liquid handling platform was used to manage effluent dilutions (1:500 for albumin, neat for ALT), preparation of standard curves, and addition of antibody cocktail. Absorbance at 450 nm was measured using the SynergyNeo Microplate Reader (BioTek).

[4] = system: human Liver-Chip; experiment: Liver-Chip DILI prediction: minimum toxic concentration and margin of safety (MOS)-like figure; conditions: for Chip MOS both donors / Chip MOS donor 1 / Chip MOS donor 2: free IC50 concentration in the assay divided by total concentration of drug in human plasma at Cmax; for Liver-Chip toxicity determination, MOS-like figure against threshold value of 50: not corrected for protein binding, donors one and two;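 for Chip MOS both donors: Toxic concentration is the lowest across albumin IC50 and ALT and morphology endpoints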;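 for Chip MOS donor 1: Toxic concentration is the lowest across albumin IC50 and ALT and morphology endpoints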;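 for Chip MOS donor 2: Toxic concentration is the lowest across albumin IC50 and ALT and morphology endpoints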
Source text: Because the fundamental principles of drug action dictate that free (unbound) drug concentrations drive drug effects, we explored an alternative methodology for calculating the MOS-like values by accounting for protein binding using a previously reported approach. Accordingly, we reanalyzed the findings for the 27 drugs in our study by accounting for protein binding.

[5] = system: human Liver-Chip (primary human hepatocytes); experiment: Liver-Chip albumin production in top channel effluent (ELISA); type: cell-based
Source text: as §1, §2, §3, §4
All statistical analyses were conducted in R[21] (version 4.1.2) and figures were produced using the R package ggplot2[22] (version 3.3.5). The dose-response analysis (Fig. 4) was carried out using the popular drc R package developed by Ritz et al.[23] using the generalized log-logistic dose-response model. The error bars in Figs. 3 and 4, correspond to the standard errors of the mean. The circles in Fig. 3 correspond to the samples used to calculate the corresponding statistics. The analysis of significance in Fig. 3 was performed using paired t-test across different days (same donor) and unpaired t-test across different donors (same day). In Fig. 3 the number of samples used were n = 3 for donor two, and n = 4 for donor three. For both donors, the number of the freshly thawed hepatocyte samples used to estimate the corresponding log2(Fold Change) were n = 4. Finally, the analysis of significance in Fig. 3 was performed using paired t-test.

[6] = system: 3D spheroid cultures of primary human hepatocytes; conditions: cited from earlier work; for Spheroid MOS: 3D hepatic spheroids, previously published data; for Spheroid false negative: Yes/No, also No for drugs not tested in spheroid
[7] = cited from earlier work; remark: listed apart in the source
[8] = lowest concentration causing an increase in ALT protein, donor 1
[9] = lowest concentration causing an increase in ALT protein, donor 2
[10] = lowest concentration causing an increase in ALT protein
[11] = concentration causing a 50% reduction in albumin production
[12] = expanded drug list, lowest concentration causing an increase in ALT release, donor 1
[13] = expanded drug list, lowest concentration causing an increase in ALT release, donor 2
[14] = human, total plasma Cmax, ref Vorrink, S. U., Zhou, Y., Ingelman- Sundberg, M. & Lauschke, V.M. (30)
[15] = expanded drug list, lowest multiplier causing a 50% reduction in albumin production

## COC(c1ccccc1)(c1ccccc1)[C@H](Oc1nc(C)cc(C)n1)C(=O)O [Ambrisentan]
[1]
  Garside DILI rank: 5
[2]; human, total plasma Cmax, ref Proctor, W.R. et al. (29)
  Human Cmax Total: 790 nM
[3]; [8]
  ALT Donor 1: >300 multiples of the unbound human Cmax
[3]; [9]
  ALT Donor 2: >1000 multiples of the unbound human Cmax
[3]; [10]
  ALT Donor 3: >300 multiples of the unbound human Cmax
[4]
  Chip MOS both donors: >10
  Chip MOS donor 1: >3
  Chip MOS donor 2: >10
[5]; [11]
  Albumin IC50 Donor 1: >300 multiples of the unbound human Cmax
  Albumin IC50 Donor 2: >1000 multiples of the unbound human Cmax
  Albumin IC50 Donor 3: >300 multiples of the unbound human Cmax
[6]
  Spheroid MOS: >127
  Spheroid false negative: No

## C=C[C@@H]1C[C@]1(NC(=O)[C@@H]1C[C@@H](Oc2ncc(OC)c3ccc(Cl)cc23)CN1C(=O)[C@@H](NC(=O)OC(C)(C)C)C(C)(C)C)C(=O)NS(=O)(=O)C1CC1 [Asunaprevir]
[1]
  Garside DILI rank: 2
[2]; human, total plasma Cmax, ref Schulz, M. & Schmoldt, A. (64)
  Human Cmax Total: 764.4 nM
[3]; Liver-Chip effluent
  ALT change in words: no elevation of ALT
[3]; [12]
  ALT Donor 1: > 1000 unbound human Cmax multiplier
[4]
  Chip MOS donor 1: 4
[5]; Liver-Chip effluent
  Albumin change in words: concentration and time-dependent changes
[6]
  Spheroid false negative: No
[7]; plasma, ref Lau, S.W.J. (65)
  Expected Fraction Unbound in Plasma: 0.012

## CC(C(=O)O)c1ccc2oc(-c3ccc(Cl)cc3)nc2c1 (stereo not shown) [Benoxaprofen]
[1]
  Garside DILI rank: 1
[2]; human, total plasma Cmax, ref Chatsiricharoenkul, S., Niyomnaitham, Pongnarin, P., Sathirakul, K. & Kongpatanakul, S. (66)
  Human Cmax Total: 149100 nM
[3]; [12]
  ALT Donor 1: > 100 unbound human Cmax multiplier
[3]; [13]
  ALT Donor 2: 100 unbound human Cmax multiplier
[4]
  Chip MOS both donors: 0.001
  Chip MOS donor 1: 0.001
  Chip MOS donor 2: 0.3
  Liver-Chip toxicity determination, MOS-like figure against threshold value of 50: hepatotoxic
[6]
  Spheroid MOS: >0.7
  Spheroid false negative: Yes
[7]; plasma, ref Scott, L. J. (69)
  Expected Fraction Unbound in Plasma: 0.01

## CCN(CC)C(=O)/C(C#N)=C/c1cc(O)c(O)c([N+](=O)[O-])c1 [Entacapone]
[1]
  Garside DILI rank: 4
[2]; human, total plasma Cmax, ref Lombardo, F., Berellini, G. & Obach, R. S. (70)
  Human Cmax Total: 3300 nM
[3]; [8]
  ALT Donor 1: >300 multiples of the unbound human Cmax
[4]
  Chip MOS donor 1: >6
[5]; [11]
  Albumin IC50 Donor 1: >300 multiples of the unbound human Cmax
[6]
  Spheroid MOS: 46.5
  Spheroid false negative: No

## O=c1[nH]c(=O)n([C@@H]2O[C@H](CO)[C@@H](O)[C@@H]2F)cc1I [FIRU]
[1]
  Garside DILI rank: 5
[2]; [14]
  Human Cmax Total: *0.64µM
[3]
  ALT Donor 1: >300 multiples of the unbound human Cmax
  ALT Donor 2: >300 multiples of the unbound human Cmax
[4]
  Chip MOS both donors: >108
  Chip MOS donor 1: >108
  Chip MOS donor 2: >108
[5]; [11]
  Albumin IC50 Donor 1: >300 multiples of the unbound human Cmax
  Albumin IC50 Donor 2: >300 multiples of the unbound human Cmax
[6]
  Spheroid false negative: No
[7]; plasma, ref Scott, L. J. (69)
  Expected Fraction Unbound in Plasma: *0.36

## O=c1[nH]c(=O)n([C@@H]2O[C@H](CO)[C@@H](O)[C@@H]2F)cc1I [Fialuridine]
[1]
  Garside DILI rank: 1
[2]; [14]
  Human Cmax Total: 640 nM
[3]; [8]
  ALT Donor 1: >300 multiples of the unbound human Cmax
[3]; [9]
  ALT Donor 2: >300 multiples of the unbound human Cmax
[4]
  Chip MOS both donors: 0.1
  Chip MOS donor 1: 0.1
  Chip MOS donor 2: 2.8
[5]; [11]
  Albumin IC50 Donor 1: <0.1 multiples of the unbound human Cmax
  Albumin IC50 Donor 2: <1 multiples of the unbound human Cmax
[6]
  Spheroid MOS: 12.3
  Spheroid false negative: No

## CCc1nn(CCCN2CCN(c3cccc(Cl)c3)CC2)c(=O)n1CCOc1ccccc1 [Nefazodone]
[1]
  Garside DILI rank: 1
[3]; [8]
  ALT Donor 1: 300 multiples of the unbound human Cmax
[4]
  Chip MOS donor 1: 1.4
[5]; [11]
  Albumin IC50 Donor 1: 140 multiples of the unbound human Cmax
[6]
  Spheroid MOS: 6.8
  Spheroid false negative: No

## Cc1cc2c(s1)Nc1ccccc1N=C2N1CCN(C)CC1 [Olanzapine]
[1]
  Garside DILI rank: 5
[2]; human, total plasma Cmax, ref Brunton, L. L., Hilal-Dandan, R. & Knollmann, B. C. (72)
  Human Cmax Total: 0.09 nM
[3]; [8]
  ALT Donor 1: >300 multiples of the unbound human Cmax
[3]; [9]
  ALT Donor 2: >300 multiples of the unbound human Cmax
[3]; [10]
  ALT Donor 3: >300 multiples of the unbound human Cmax
[4]
  Chip MOS both donors: >20
  Chip MOS donor 1: >20
  Chip MOS donor 2: >2
[6]
  Spheroid false negative: No
[7]; plasma, reference data from the literature, no reference
  Expected Fraction Unbound in Plasma: 0.07

## CCc1ccc(CCOc2ccc(CC3SC(=O)NC3=O)cc2)nc1 (stereo not shown) [Pioglitazone]
[1]
  Garside DILI rank: 3
[2]; human, total plasma Cmax, ref Xu, J. J. et al. (36)
  Human Cmax Total: 3000 nM
[3]; [8]
  ALT Donor 1: >300 multiples of the unbound human Cmax
[3]; [9]
  ALT Donor 2: >300 multiples of the unbound human Cmax
[4]
  Chip MOS both donors: 2.8
  Chip MOS donor 1: 2.8
  Chip MOS donor 2: > 2.8
[5]; [11]
  Albumin IC50 Donor 1: 277 multiples of the unbound human Cmax
  Albumin IC50 Donor 2: >300 multiples of the unbound human Cmax
[6]
  Spheroid MOS: > 5.3
  Spheroid false negative: Yes

## Cc1cc2c(cc1CC(=O)c1sccc1S(=O)(=O)Nc1onc(C)c1Cl)OCO2 [Sitaxsentan]
[1]
  Garside DILI rank: 1
[3]; [8]
  ALT Donor 1: 300 multiples of the unbound human Cmax
[3]; [9]
  ALT Donor 2: 300 multiples of the unbound human Cmax
[3]; [10]
  ALT Donor 3: 100 multiples of the unbound human Cmax
[4]
  Chip MOS both donors: 0.04
  Chip MOS donor 1: 0.04
  Chip MOS donor 2: 1.6
[5]; [11]
  Albumin IC50 Donor 1: 4.4 multiples of the unbound human Cmax
  Albumin IC50 Donor 2: 164 multiples of the unbound human Cmax
  Albumin IC50 Donor 3: >100 multiples of the unbound human Cmax
[6]
  Spheroid MOS: 8.7
  Spheroid false negative: No

## CCOC(=O)CN[C@@H](C(=O)N1CC[C@H]1C(=O)NCc1ccc(/C(N)=N\O)cc1)C1CCCCC1 [Ximelagatran]
[2]; human therapeutic total plasma Cmax from literature, ref Sivapalasingam, S. & Steigbigel, N. (67)
  Human Cmax Total: 450 nM
[3]; [12]
  ALT Donor 1: 30 unbound human Cmax multiplier
[3]; [13]
  ALT Donor 2: > 300 unbound human Cmax multiplier
[4]
  Chip MOS both donors: 30
  Chip MOS donor 1: 30
  Chip MOS donor 2: 300
  Liver-Chip toxicity determination, MOS-like figure against threshold value of 50: only toxic in one of the donors tested
[5]; [15]
  Albumin IC50 Donor 1: 32 unbound human Cmax multiplier
  Albumin IC50 Donor 2: > 300 unbound human Cmax multiplier
[6]
  Spheroid MOS: 335
  Spheroid false negative: Yes
[7]; human plasma, no reference printed (-)
  Expected Fraction Unbound in Plasma: 1
